Patent US5846720A, “Methods of determining chemicals that modulate expression of genes associated with cardiovascular disease” (Oncogene Science, Inc., priority 1996, dated 1998)
“Also recorded” adds a separate entry of the source.

Assays:
[1] = test system: G-CSF promoter; assay: G-CSF promoter/luciferase reporter assay (high-throughput screen I), G21 cells; conditions: for activation of the G-CSF promoter (dose response): G21 cells; for EC50: read-out: ED50 (concentration of chemical resulting in 50% maximal stimulation), G-CSF reporter cell line G21, range over the three chemicals; for GCSF fold induction relative to solvent control: transcriptional activators, Table 2, 6 h incubation
[2] = test system: beta-actin mRNA; assay: Northern blot of actin mRNA (control); type: cell-based, human; conditions: U5637 cells
Procedure: Total cellular RNA was isolated from cells following incubation with chemicals as described above and electrophoresed in a 1% Agarose Formaldehyde gel. The RNA was transferred to Duralon-UV nylon filters (Stratagene, La Jolla, Calif.) using the manufacturer's recommended protocol. The filters were prehybridized for 4 hours (prehybridizing solution=5× SSC, 50 mM sodium pyrophosphate, 10× Denhardt's solution, 10% dextran sulfate, 7% SDS and 250 μg/ml denatured ssDNA) and then hybridized in the same solution for 16 hours at 65° C. in the presence of specific probes. The G-CSF probe was a 0.6 kb AflII to Xhol fragment which contained most of exon 5 of the human G-CSF gene. The β-actin (Oncor, Gaithersburg, Md.) probe was used as a control probe to normalize for the total amount of RNA. The probes were labeled with alpha-32P dCTP using a random primed DNA labeling kit (Amersham, Arlington, Ill.). Following hybridization, filters were washed three times at room temperature with 1× SSC, 0.13% SDS and three times at 65° C. with 0.2× SSC, 0.1% SDS. Filters were first probed with the G-CSF specific probe and then reprobed with β-actin-probe. […] Bands were excised and counted in a liquid scintillation counter (LKB, Gaithersburg, Md.), and counts obtained with the G-CSF specific probe were normalized relative to the counts obtained with the β-Actin specific probe. […]

[3] = test system: G-CSF mRNA; assay: Northern blot of endogenous G-CSF mRNA; type: cell-based, human; conditions: U5637 cells, relative to DMSO
Procedure: Total cellular RNA was isolated from cells following incubation with chemicals as described above and electrophoresed in a 1% Agarose Formaldehyde gel. The RNA was transferred to Duralon-UV nylon filters (Stratagene, La Jolla, Calif.) using the manufacturer's recommended protocol. The filters were prehybridized for 4 hours (prehybridizing solution=5× SSC, 50 mM sodium pyrophosphate, 10× Denhardt's solution, 10% dextran sulfate, 7% SDS and 250 μg/ml denatured ssDNA) and then hybridized in the same solution for 16 hours at 65° C. in the presence of specific probes. The G-CSF probe was a 0.6 kb AflII to Xhol fragment which contained most of exon 5 of the human G-CSF gene. The β-actin (Oncor, Gaithersburg, Md.) probe was used as a control probe to normalize for the total amount of RNA. The probes were labeled with alpha-32P dCTP using a random primed DNA labeling kit (Amersham, Arlington, Ill.). Following hybridization, filters were washed three times at room temperature with 1× SSC, 0.13% SDS and three times at 65° C. with 0.2× SSC, 0.1% SDS. Filters were first probed with the G-CSF specific probe and then reprobed with β-actin-probe. Exposure to x-ray film was performed overnight. Bands were excised and counted in a liquid scintillation counter (LKB, Gaithersburg, Md.), and counts obtained with the G-CSF specific probe were normalized relative to the counts obtained with the β-Actin specific probe.
Also shown are the effects of the solvent, DMSO, used to dissolve the chemicals and a proteinaceous positive regulator, interferon-gamma.

[4] = test system: G-CSF mRNA; assay: S1 nuclease protection, G-CSF mRNA; type: cell-based, human; conditions: for amount of G-CSF mRNA (S1 nuclease protection): 5637 cells, 18 hours
Procedure: S1 Nuclease protection assays were carried out as described in reference 118.
To further confirm, that compounds that had been identified in a luciferase expression assay using a G-CSF specific reporter cell line would be active in inducing transcription of the endogenous G-CSF gene, cells from the parental cell line 5637 used to construct the reporter cell line were incubated with cycloheximide (25 ug/ml), DMSO (0.5%,solvent control) and low, medium and high concentrations of the compounds 542 (10, 50, 250 μM),1255 (20, 100, 500 uM), 1793(0.25, 1.2, 6.25 μM) and 1904 (20, 100 uM) for 18 hours. RNA was extracted and the concentration of G-CSF, GM-CSF and gamma-actin mRNA was determined by the S1 protection method as described in above. The positions of G-CSF GM-CSF and gamma-actin specific protected fragments are indicated (G, GM, A) at the left side of the gel (FIG. 37).

[5] = test system: 5637 bladder carcinoma cells; assay: G-CSF secretion, two-antibody sandwich immunoassay; type: cell-based, human; conditions: 48 hours, serum-containing media
Procedure: Supernatants from 5637 bladder carcinoma cells incubated with chemicals registering as positives in the G-CSF promoter/luciferase high throughput assay were assayed for secreted G-CSF protein using the two-antibody sandwich immunoassay (83). The G-CSF Assay kit manufactured by Oncogene Science, Inc. was used and the manufacturer's instructions were followed.
The levels of G-CSF in the cell supernatants were determined by a sandwich-antibody assay as described in above (FIG. 42).

[6] = test system: hGH promoter; assay: hGH promoter/luciferase reporter assay (high-throughput screen I), 532 cells; type: cell-based, rat; conditions: transcriptional activators, Table 2; 6 h incubation
Excerpt: 6. a GC rat pituitary cell line, transfected with the growth hormone reporter plasmid, designated 532, deposited under ATCC Accession No. CRL 10663.

[7] = test system: MMTV promoter; assay: MMTV promoter/luciferase reporter assay (high-throughput screen I, control for specificity), M10 cells; type: cell-based, mouse; conditions: transcriptional activators, Table 2; original high-throughput assay; 6 h incubation

CN(C)c1ccc(C(=C2C=CC(=[N+](C)C)C=C2)c2ccc([N+](C)(C)C)cc2)cc1 [#670]
activation of the G-CSF promoter (dose response) [1]: specifically activated the G-CSF promoter
EC50 [1]: 5 to 70 µM
effect on actin mRNA (Northern blot) [2]: not of actin mRNA
effect on endogenous G-CSF mRNA (Northern blot) [3]: increased G-CSF mRNA production; also recorded: stimulated production of G-CSF mRNA

Clc1cc(Cl)cc(Br)c1 [#1255]
amount of G-CSF mRNA (S1 nuclease protection) [4]: increased mRNA production
effect on actin mRNA (Northern blot) [2]: not of actin mRNA
effect on endogenous G-CSF mRNA (Northern blot) [3]: increased G-CSF mRNA production; also recorded: stimulated production of G-CSF mRNA

CN(C)c1ccc(C(=C2C=CC(=[N+](C)C)C=C2)c2ccc(N(C)C)cc2)cc1 [#1780]
levels of endogenous G-CSF mRNA ([4]; method not stated at the place): stimulate levels of endogenous G-CSF mRNA
scored as positive in repeat assays (G-CSF) ([1]; 48 independent luciferase assays, same day): scored as positives in every single one of these assays
activation of the G-CSF promoter (dose response) [1]: specifically activated the G-CSF promoter
EC50 [1]: 5 to 70 µM
G-CSF secretion [5]: increased G-CSF secretion

Nc1c2ccccc2nc2ccccc12 [#1904]
amount of G-CSF mRNA (S1 nuclease protection) [4]: increased mRNA production

ClCc1ccc(Cl)cc1 [Chemical 2129]
GCSF fold induction relative to solvent control [1]: 3.23 fold
hGH fold induction relative to solvent control [6]: 0.75 fold
MMTV fold induction relative to solvent control [7]: 0.95 fold

O=C1CCCCC1Cl (stereo not shown) [Chemical 2148]
GCSF fold induction relative to solvent control [1]: 0.45 fold
hGH fold induction relative to solvent control [6]: 0.92 fold
MMTV fold induction relative to solvent control [7]: 2.82 fold

O=C(N[C@H](CO)[C@H](O)c1ccc([N+](=O)[O-])cc1)C(Cl)Cl [Chemical 2191]
GCSF fold induction relative to solvent control [1]: 0.37 fold
hGH fold induction relative to solvent control [6]: 0.35 fold
MMTV fold induction relative to solvent control [7]: 7.32 fold

CC(=O)n1ccnc1 [Chemical #58, 1-Acetylimidazole]
GCSF fold induction relative to solvent control [1]: 6.03 fold
hGH fold induction relative to solvent control [6]: 0.17 fold
MMTV fold induction relative to solvent control [7]: 0.42 fold

Nc1nc(=O)n([C@H]2C[C@H](O)[C@@H](CO)O2)cc1Br [Chemical #542, 5-Bromo-2'-deoxycytidine]
GCSF fold induction relative to solvent control [1]: 6.28 fold
hGH fold induction relative to solvent control [6]: 1.08 fold
MMTV fold induction relative to solvent control [7]: 1.26 fold
